# Assay results taken from patent publication US20140038953A1, “COMPOSITIONS AND METHODS FOR CARDIOVASCULAR DISEASE” (THE GENERAL HOSPITAL CORPORATION, priority 2011, published 2014).
# “Also recorded” adds a separate entry of the source.
# Assays:
# LDLR−/− mice = test: Atheroma burden / lesion formation in LDLR−/− mice (Oil Red O, histology); format: in vivo; settings: for lipid accumulation / atheroma burden (Oil Red O): high fat diet 20 weeks, 2.5 mg/kg ip daily, vs vehicle, 2.5 mg/kg
# Experimental: Aortas were either immediately embedded and cryopreserved using optimal cutting-temperature medium (Sakura Tissue-Tek, Zoeterwoude, The Netherlands) or fixed in paraformaldehyde and embedded in parafin. The presence of calcification was determined by staining tissue sections with Alizarin red or Von Kossa. Lipid accumulation in tissue sections was visualized by staining with Oil Red O. Liver sections were prepared from paraformaldehyde-fixed tissue and stained with hematoxylin and eosin.
# To confirm that BMP signaling has a direct impact on atherogenesis, the aortae explanted from the BMP inhibitor positive control compound-treated and vehicle-treated LDLr−/− mice after 20 weeks were subjected to Oil Red 0 staining to mark lipid-rich plaques.
# LDLr−/− mice were started on a hypercholesterolemic diet at 8 weeks, and treated with either vehicle (saline) or a BMP inhibitor positive control compound (compound 13, 2.5 mg/kg/d intraperitoneally) for an additional 8 weeks. Aortae were harvested and fixed, and then stained with antibodies sensitive for the BMP effector molecule, phosphorylated-SMAD1/5/8, and counterstained with DAPI nuclear stain. Within 6-8 weeks of being subjected to a high fat diet, LDR−/− mice developed fatty lesions in the intima of the aortic root, based on traditional histochemical staining techniques (data not shown). […] Thus, the cellular components of lipid rich plaques, predominantly macrophage-derived foam cells, had evidence of intense activation of the BMP signaling pathway. In contrast, the lipid plaques found in the BMP inhibitor positive control compound-treated mice, which were diminished in size and extent as compared to those in vehicle-treated mice, had also diminished intensity of staining for the phosphorylated form of SMAD1/5/8 (data not shown). Thus, hypercholesterolemic mice had evidence of intense BMP signaling pathway activation in the cellular components of atheromatous lesions, and treatment of hypercholesterolemic mice with the BMP inhibitor positive control compound diminished the activation of the BMP signaling pathway in these lesions.
# (§1) LDLR−/− deficient mice were intiated on an atherogenic diet (Paigen) at 8 weeks of age, and administered either vehicle, a BMP inhibitor positive control compound (compound 13, 2.5 mg/kg IP daily) or ALK3-Fc (2 mg/kg IP every other day). Each treatment group consisted of a total of 10 mice. After 4 weeks of atherogenic diet and drug or vehicle treatment, the animals were sacrificed. The frontal plane sections of the aortic arch were dissected out and stained for macrophage marker (MAC2) and counterstained with DAPI.
# as §1, with “initiated” for “intiated”, “([…]” for “(2”, “day).” for “day). Each treatment group consisted of a total of 10 mice.”, “6” for “4”, “and” for “and drug or vehicle”, “phosphorylated SMAD1/5/8” for “macrophage marker (MAC2)”
# HMG-CoA reductase = target: T1, HMG-CoA reductase (Homo sapiens, UniProt P04035); test: HMG-CoA reductase activity assay; format: biochemical; settings: compound 13 at 50 nM and 100 nM
# T1 construct: purchased Sigma-Aldrich CS1090
# T1 sequence (P04035 426-888 limits assumed): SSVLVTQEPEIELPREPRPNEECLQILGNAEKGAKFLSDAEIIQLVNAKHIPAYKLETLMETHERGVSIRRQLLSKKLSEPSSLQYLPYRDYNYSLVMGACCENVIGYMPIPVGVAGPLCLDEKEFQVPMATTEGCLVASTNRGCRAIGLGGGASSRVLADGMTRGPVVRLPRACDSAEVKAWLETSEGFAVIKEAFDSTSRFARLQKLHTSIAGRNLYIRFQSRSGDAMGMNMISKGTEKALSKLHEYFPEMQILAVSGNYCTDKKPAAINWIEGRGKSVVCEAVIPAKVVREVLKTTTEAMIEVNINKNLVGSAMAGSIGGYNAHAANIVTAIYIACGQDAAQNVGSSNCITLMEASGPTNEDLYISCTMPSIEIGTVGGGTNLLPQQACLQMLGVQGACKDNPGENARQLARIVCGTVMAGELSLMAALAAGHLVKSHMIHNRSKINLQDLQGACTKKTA
# Source text: Enzyme activity was quantified using a commercially available Assay Kit (CS1090 HMG-CoA Reductase Kit, Sigma-Aldrich, St. Louis, Mo.)
# Wnt3a gene expression = test: Aortic Wnt3a gene expression in MGP−/− mice; format: in vivo; settings: 2.5 mg/kg/day IP day 1-28
# Experimental: Total cellular RNA from either snap frozen tissues or cultured cells was extracted by the Phenol/guanidine method as described. (Chomczynski, P. & Sacchi, N. Single-step method of RNA isolation by acid guanidinium thiocyanate-phenol-chloroform extraction. Anal Biochem 162, 156-159 (1987).) cDNA was synthesized using Moloney murine leukemia virus reverse transcriptase (Promega, Madison, Wis., USA).
# MGP−/− mice were treated with intraperitoneal (IP) injections of either vehicle or compound 13 at 2.5 mg/kg/day from day 1-28. At day 28, aortas were harvested for both histology and RNA isolation. […] To further quantify aortic calcium, a fluorescent bisphosphonate agent that specifically binds to hydroxyapatite (OsteoSense 680 nm, Perkin Elmer) was used. (Aikawa E, et al. Multimodality molecular imaging identifies proteolytic and osteogenic activities in early aortic valve disease. Circulation. 2007; 115(3):377-386 and Zaheer A, et al. In vivo near-infrared fluorescence imaging of osteoblastic activity. Nature biotechnology. 2001; 19(12):1148-1154.) MGP−/− mice at 27 days of age treated with vehicle or compound 13 received OsteoSense via tail vein, and 24 h later, aortas were harvested for imaging. […]
structure (smiles),measurement,setting,value
"c1ccc2c(-c3cnn4cc(-c5ccc(N6CCNCC6)cc5)cnc34)ccnc2c1 [Compound 13, 4-[6-(4-piperazin-1-ylphenyl)pyrazolo[1,5-a]pyrimidin-3-yl]quinoline]",lesion formation in aortic arch,"LDLR−/− mice; LDLR−/− mice, atherogenic diet and treatment 4 weeks, compound 13 2.5 mg/kg IP daily, ALK3-Fc 2 mg/kg IP every other day",decreased lesion formation overall
same,lesion formation / atherogenesis,"LDLR−/− mice; LDLR−/− mice, atherogenic diet and treatment 6 weeks",decreased lesion formation overall
same,lipid accumulation / atheroma burden (Oil Red O),LDLR−/− mice; LDLR−/− mice,Atheroma burden was reduced; also recorded: marked reduction
same,lipid accumulation / atheroma burden (Oil Red O),"LDLR−/− mice; LDLR−/− mice, listed as BMP inhibitor positive control compound",consistently more severe in vehicle-treated
same,intimal atheroma formation,"LDLR−/− mice; LDLr−/− mice, hypercholesterolemic diet and treatment 8 weeks, 2.5 mg/kg/d ip",reduced intimal atheroma formation
same,HMG-CoA reductase enzyme activity in vitro,HMG-CoA reductase,did not inhibit; also recorded: lack of impact
same,reduction in aortic Wnt3a gene expression,Wnt3a gene expression,> 5 fold
